Earlier results, collected in patent publication US20130251696A1, “Antioxidant Composition for Reducing Oxidative Stress Ascribable to the Treatment with Hormonal Contraceptive Drugs” (COR.CON. INTERNATIONAL S.R.L., priority 2010, published 2013).

Settings: principal organs (heart, brain, liver, uterus etc.)

Structure (SMILES): O=C(O[C@@H]1Cc2c(O)cc(O)cc2O[C@@H]1c1cc(O)c(O)c(O)c1)c1cc(O)c(O)c(O)c1 [EGCG, epigallocatechin gallate]
- tissue levels as % of blood levels: 8-10%
